Assay results as given in US20120010262A1, “CRYSTALLINE POLYMORPHIC FORMS OF AN ANTIDIABETIC COMPOUND” (priority 2009, published 2012).

Experiment: Solid-form stability of crystalline anhydrate Form II (conversion to Anhydrate III)
Type: physicochemical
Details: converts to crystalline Anhydrate III when heated to 160° C. for 1 hour or in solutions of ethanol, isoamyl alcohol and isopropyl acetate
Description: Anhydrate Form II is prepared from a solution of the crystalline hydrate form at a concentration of >100 mg/mL in acetonitrile. The solution is sonicated for approximately 5 minutes to induce crystallization. Anhydrate H is metastable. It converts to crystalline Anhydrate III when heated to 160° C. for 1 hour or in solutions of ethanol, isoamyl alcohol and isopropyl acetate. The X Ray Powder Diffraction peaks are shown below in Table 4.

- physical stability of the crystalline form: metastable
Compound: CCC[C@H](c1ccc(C(=O)NCCC(=O)O)cc1)[C@H](c1ccc(Cl)cc1)c1c[nH]c2c(F)cc(C)cc12 [Anhydrate H, N-(4-{(1S)-1-[(R)-(4-chlorophenyl)(7-fluoro-5-methyl-1H-indol-3-yl)methyl]butyl}benzoyl)-β-alanine]
